The target of one data set is T1, human PLK1 (Homo sapiens, UniProt P53350).
T1 construct: FLAG (DYKDDDDK) (N); made in house; host or cells: Sf21 insect cells, recombinant baculovirus (pFASTBAC1, Bac-to-Bac)
Kind of data set: PLK1 in vitro enzymatic activity assay (phosphorylation of alpha casein by recombinant PLK1). Format: biochemical. Conditions: recombinant FLAG-tagged PLK1, alpha casein substrate, 500 nmol/L ATP, 40 min at room temperature; read-out: pIC50 (PLK1) (converted). The method in brief: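 Recombinant PLK1 from baculovirus-infected Sf21 cells (50 ng) phosphorylated 3 μg alpha casein for 40 min at room temperature in HEPES pH 7.5, Mg acetate, DTT buffer with 500 nmol/L ATP plus [γ-32P]ATP. TCA-precipitated phosphoprotein was filter-captured, washed, and counted by scintillation.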

Some results are limits rather than exact numbers.

Here are results for three molecules from US20110201818A1, “POLO-LIKE KINASE INHIBITORS” (TAKEDA PHARMACEUTICAL COMPANY LIMITED, priority 2007, published 2011).

In general, melting point refers to the temperature of the solid-liquid transition.

T1 sequence (P53350 with tags, fused parts or gaps): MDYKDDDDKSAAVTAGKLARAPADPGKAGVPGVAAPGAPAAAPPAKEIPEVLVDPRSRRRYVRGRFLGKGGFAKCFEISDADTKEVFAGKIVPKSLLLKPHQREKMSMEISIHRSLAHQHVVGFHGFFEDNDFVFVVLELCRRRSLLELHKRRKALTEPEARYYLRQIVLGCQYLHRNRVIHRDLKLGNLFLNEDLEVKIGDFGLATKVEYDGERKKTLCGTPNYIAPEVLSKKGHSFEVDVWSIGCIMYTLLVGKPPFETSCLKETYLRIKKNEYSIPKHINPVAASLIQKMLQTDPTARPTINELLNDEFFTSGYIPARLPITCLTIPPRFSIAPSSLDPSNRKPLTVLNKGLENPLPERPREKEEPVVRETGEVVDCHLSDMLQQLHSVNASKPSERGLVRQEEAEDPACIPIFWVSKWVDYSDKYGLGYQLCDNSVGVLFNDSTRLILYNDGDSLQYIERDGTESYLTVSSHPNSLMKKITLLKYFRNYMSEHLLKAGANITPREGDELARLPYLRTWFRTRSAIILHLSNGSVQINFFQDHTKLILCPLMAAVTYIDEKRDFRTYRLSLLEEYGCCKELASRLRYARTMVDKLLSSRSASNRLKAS

`COc1cc(C(=O)N[C@@H]2CCNC2)ccc1Nc1ncc2c(n1)N(C1CCCCC1)CC(F)(F)C(=O)N2C` [Compound 73, (R)-4-(9-cyclohexyl-7,7-difluoro-5-methyl-6-oxo-6,7,8,9-tetrahydro-5H-pyrimido[4,5-b][1,4]diazepin-2-ylamino)-3-methoxy-N-(pyrrolidin-3-yl)benzamide] displayed a melting point of 195 to 198 °C. The IC50 at human PLK1 was at most 2 nM.

Turning to `C=CC1(F)CN(C2CCCC2)c2nc(Nc3ccc(C(=O)N[C@@H]4CCCNC4)cc3OC)ncc2N(C)C1=O` (stereo partly drawn) [Compound 102, 4-(9-cyclopentyl-7-fluoro-5-methyl-6-oxo-7-vinyl-6,7,8,9-tetrahydro-5H-pyrimido[4,5-b][1,4]diazepin-2-ylamino)-3-methoxy-N—((R)-piperidin-3-yl)benzamide], the melting point was in the range of 169 to 172 °C. Besides, the IC50 at human PLK1 is at most 2 nM.

With `COc1cc(C(=O)NC2CCN(CC(F)(F)F)CC2)ccc1Nc1ncc2c(n1)N(C1CCCCC1)CC(F)(F)C(=O)N2C` [Compound 50, 4-(9-cyclohexyl-7,7-difluoro-5-methyl-6-oxo-6,7,8,9-tetrahydro-5H-pyrimido[4,5-b][1,4]diazepin-2-ylamino)-3-methoxy-N-(1-(2,2,2-trifluoroethyl)piperidin-4-yl)benzamide], the melting point fell in the range of 213 to 215 °C. Besides, the IC50 at human PLK1 was at most 2 nM.
